From patent US20100021379A1, “Chemical Antibodies for Immunotherapy and Imaging” (The Regents of the University of California, priority 2006, published 2010)

System: K562 cells transfected with the alpha4 integrin subunit
Conditions: ligand alone
Experimental: K562 cells express the betal integrin subunit, but not the alpha4 integrin subunit. Staining was quantified by FLOW cytometry, which was performed on a Coulter® XL-MCL™ Flow Cytometer (Beckman Coulter, Inc.; Fullerton, Calif.). Cells were harvested and adjusted to a concentration of 1×10^6 cells/ml in TBS plus 1 mM CaCl2 and MnCl2. Fc-ligand antibody conjugates, Fc fragments, or ligands were then incubated at various concentrations with cells for 1 hour at room temperature. Cells were centrifuged at 1000 RPM for 5 minutes, liquid was aspirated, and cells were resuspended and spun down again. Cells were then incubated with a detecting agent, e.g., 1:1000 streptavidin-PE or 1:500 anti-human Fc-FITC (Sigma-Aldrich Co.) for 1 h at room temperature. Cells were washed two times as described above and then resuspended in PBS at a concentration of 1×10^6 cells/ml. Cellular fluorescence was visualized using a fluorescent microscope.

Cc1ccccc1NC(=O)Nc1ccc(CC(=O)N[C@@H](CCCCNC(=O)/C=C/c2cccnc2)C(=O)N[C@@H](CCCC(=O)O)C(=O)NC2(C(=O)NCCOCCOCCNC(=O)CCC(=O)N[C@@H](Cc3ccc(O)c(O)c3)C(=O)NCCOCCOCCNC(=O)CCC(=O)NCCOCCOCCNC(=O)CCC(=O)N[C@@H](CCCCNC(=O)CCCC[C@@H]3SC[C@@H]4NC(=O)N[C@@H]43)C(N)=O)CCCCC2)cc1 [Ligand 2A-DOPA-Biotin]
IC50: 2 pM
